The values that follow are results of earlier work, collected in US20040014955A1, “Identification of essential genes of cryptococcus neoformans and methods of use” (priority 2001, published 2004).

*1 amine or outer side, *2 acyl side, *3 side chain or, on linkers, in order; H or OH if unused. Where a SMILES comes first, the peptide text is derived from it. [ ]: non-standard residue; d: D form. X1 = CC[C@@H](C)[C@@H](O[*:1])C(=O)[*:2]; NMeVal(β-OH) = CN[C@H](C(=O)O)C(C)(C)O; NMeF = CN[C@@H](Cc1ccccc1)C(=O)O; NMeV = CN[C@H](C(=O)O)C(C)C

The test system of the data set is C. neoformans. The conditions noted are these: weanling outbred rats infected with C. neoformans by direct percranial puncture and inoculation into the cranium.

Take `CC[C@@H](C)[C@H]1OC(=O)[C@H](C(C)(C)O)N(C)C(=O)[C@H](CC(C)C)NC(=O)[C@H](C(C)C)N(C)C(=O)[C@H]([C@@H](C)CC)NC(=O)[C@@H]2CCCN2C(=O)[C@H](Cc2ccccc2)N(C)C(=O)[C@H](Cc2ccccc2)NC(=O)[C@H](C(C)C)N(C)C1=O` [LY295337] (cyclo(F[NMeF]PI[NMeV]L[NMeVal(β-OH)][X1][NMeV])): the “fungal counts in brain tissue” value is “reducing fungal counts in brain tissue” and the survival entry is listed as “effective in prolonging survival”.
